According to patent US9371330B2, “Substituted pyrazino[1,2-a]pyrimidines useful as CBP/catenin antagonists for enhancing asymmetric division of somatic stem cells” (University of Southern California, priority 2011, dated 2016):
“Also recorded” adds a separate entry of the source.

Test system: NOD/SCIDIL2R gamma-/- mice
Assay: leukemia mouse model: hair growth and wound healing
Assay type: in vivo
Settings: ICG-001 50 mg/kg/d with VDL vs VDL only, 50 mg/kg/day
Description: NOD/SCIDIL2R gamma−/− mice were shaved and sublethally irradiated prior intravenous injection of 50,000 cells per animal. Leukemic animals were treated with a combination of intraperitoneally administered vincristine/dexamethasone/L-Aspariginase (VDL) and ICG-001 (50 mg/kg/d), which was delivered via subcutaneous osmotic pumps to ensure stable plasma levels, with VDL only as a control for 20 days. The animals were checked periodically for survival, hair growth, and wound healing.

O=C1[C@H](Cc2ccc(O)cc2)N2C(=O)CCN(C(=O)NCc3ccccc3)[C@H]2CN1Cc1cccc2ccccc12 [ICG-001]
hair growth on shaved area (within two weeks): had regrown their hair; also recorded: substantial hair growth covering the entire previously shaved area | healing of pump insertion wounds: had substantial improved; also recorded: heal quicker
